Experimental data taken from US11161823B2, “Anticancer 1,3-dioxane-4,6-dione derivatives and method of combinatorial synthesis thereof” (National Guard Health Affairs, priority 2019, dated 2021).

Experiments:
[1] = test system: MDA MB-231 cell line (Breast); assay: MTT cell proliferation assay, MDA MB-231; format: cell-based, human; conditions: Homo sapiens, MDA-MB-231; MTT, 48 h treatment, medium with 10% FBS; read-out: IC50 μM MDA MB-231 (Breast)
Experimental: (§1) Cell Culture: The human breast cancer epithelial cell lines MDA-MB-231 (HTB-26™), MCF-7 (HTB-22™), colon cancer cell lines HCT 116 (CCL-247™) and […] (CCL-244™) were obtained from American Type Culture Collection (ATCC). Additionally, KAIMRC1 cell line was isolated and developed at KAIMRC from a breast cancer patient. All the cells were grown in advanced DMEM containing 10% fetal bovine serum (FBS), 50 units/mL penicillin, 50 ug/mL streptomycin (GIBCO), and 2 mM glutamine (GIBCO). The cells were cultured at 37° C. in a humidified 5% CO2 atmosphere for 24 hours before experimental procedure.
(§2) Cell Proliferation Assay (MTT): Cells were plated on flat-bottom 96-well plates at a density of 5×10^3 cells/well in 100 μL growth medium. Serial dilutions of the compounds, ranging from 100 nM-100 μM were tested on the cells in triplicates. Additional rows with only the compounds and only cells were added in order to account for the compounds and cells effect. Cells were incubated with compounds for 48 h at 37° C. with 5% CO2.
(§3) After 48 h treatment, the cell viability was determined using the MTT viability assay. Briefly, 5 μL of MTT reagent (5 mg/mL stock) per 95 μl cell culture medium was added to each well and incubated for 3 h at 37° C. with 5% CO2. After 3 h the supernatant was removed, and the MTT formazan crystals were dissolved in dimethyl sulfoxide (DMSO) by shaking the plate for 30 mins at RT. The absorbance was measured on Molecular Devices microplate absorbance reader at 560 nm. The percentage of viable cells was calculated as the ratio of the absorbance of the treated group divided by the absorbance of the control group multiplied by 100. The absorbance from the untreated control cells was set as 100% viable. IC50 values were calculated from dose-response curves generated using a polynomial dose-response approximation using Prism 8 software. The IC50 values (µM) obtained for the compounds of present invention on MDA-MD 231 (breast), MCF-7 (breast), KAIMRC1 (breast), HCT116 (colon) and HCT8 (colon) are summarized in Table 5 and 6.

MCF-7 (Breast) = assay: MTT cell proliferation assay, MCF-7; format: cell-based, human; conditions: Homo sapiens, MCF7; MTT, 48 h treatment, medium with 10% FBS; read-out: IC50 μM MCF-7 (Breast)
Experimental: as §1, §2, §3

HCT116 (Colon) = assay: MTT cell proliferation assay, HCT116; format: cell-based, human; conditions: Homo sapiens, HCT-116; MTT, 48 h treatment, medium with 10% FBS; read-out: IC50 μM HCT116 (Colon)
Experimental: as §1, §2, §3

HCT 8 (Colon) = assay: MTT cell proliferation assay, HCT 8; format: cell-based, human; conditions: Homo sapiens, HCT-8; MTT, 48 h treatment, medium with 10% FBS; read-out: IC50 μM HCT 8 (Colon)
Experimental: as §1, §2, §3

KAIMRC1 (Breast) = assay: MTT cell proliferation assay, KAIMRC1; format: cell-based, human; conditions: Homo sapiens; MTT, 48 h treatment, medium with 10% FBS; read-out: IC50 μM KAIMRC1 (Breast)
From the text: The immortalized cell lines included in the testing panel of this disclosure are MCF7 (a breast cancer cell line), MCF10 (immortalized human breast epithelial cells), MDA-MB231 (an epithelial, human breast cancer cell line that was established from a pleural effusion of a patient with a metastatic mammary adenocarcinoma), KAIMRC1 (a naturally immortalized human breast carcinoma cell line), KAIMRC2 (a naturally immortalized breast cancer cell line). The primary cells available for lead toxicity assays are, without limitation: hepatocytes (supplied by Xenotech, Bioscience Lonza, Accegen, Biocompare, Gibco, Zen-Bio, Takarabio, AxolBio, Creative Bioarray), cardiomyocytes (supplied by Cellartis, Axolbio, Cedarlanelabs, EMD Millipore, Takara Bio, Neuromics, AcceGene), primary neurons (AcceGen, Cellapplications, Neuromics, Biocompare, AxolBio, BrainXcell), endothelial lining (Thermofisher, Accegen, Biocompare, Promocell, ATCC). Multicellular 3D organoids raised by differentiating iPSC (induced pluripotent stem cells) are provided by Sigma Aldrich (the iPSC cell lines, organoids), Tocris Bioscience, Thermofisher, Stemcell Technologies, Takara Bio, Emulatebio (Human organ chips), Prodolabs.
as §1, §2, §3

HL 60 (leukemia) = assay: Cell Titre Glo luminescent cell viability assay, HL 60; format: cell-based; conditions: Homo sapiens, HL-60; Cell Titre Glo luminescence, normalized to DMSO controls
From the text: (§4) Another embodiment discloses Titer Glo Assay for the characterization of the synthesized compounds. The CellTiter-Glo® Luminescent Cell Viability Assay is a homogeneous method of determining the number of viable cells in culture based on quantitation of the ATP present, an indicator of metabolically active cells. The CellTiter-Glo® Assay is designed for use with multiwell formats, making it ideal for automated high-throughput screening (HTS), cell proliferation, and cytotoxicity assays. The homogeneous assay procedure involves adding the single reagent (CellTiter-Glo® Reagent) directly to cells cultured in serum-supplemented medium. Cell washing, removal of medium, and multiple pipetting steps are not required. The system detects as few as 15 cells/well in a 384-well format in 10 minutes after adding reagent and mixing.
as §1
(§5) Cell Titre Glo assay was performed on two Leukemia cell lines, HL 60 and ThP1 as per manufacturer's (Promega) recommendations. Briefly, plates were prepared as mentioned in cell culture section. 100 µL of Cell Titre Glo was added directly to the wells. After incubation for 30 minutes at room temperature, luminescence was measured using the Envision plate reader (Perkin Elmer). Luminescence readings were normalized to averaged DMSO controls and expressed as relative percentage. IC50 values were calculated from dose-response curves generated using a polynomial dose-response approximation using Prism 8 software.

ThP1 (leukemia) = assay: Cell Titre Glo luminescent cell viability assay, ThP1; format: cell-based; conditions: Homo sapiens, THP-1; Cell Titre Glo luminescence, normalized to DMSO controls
From the text: as §4, §1, §5

[2] = test system: MDA-MD 231 (breast), MCF-7 (breast), KAIMRC1 (breast), HCT116 (colon) and HCT8 (colon); assay: MTT assay, review of Tables 5 and 6 (whole cell line panel); format: cell-based, human; conditions: review of Tables 5 and 6, MTT IC50
Experimental: as §1, §2, §3
The presence of nitrogen in certain positions of quinoline and/or iso-quinoline ring is the structure-activity determinant, and the subsequent variations in the nitrogen positions and substituents in this ring produce stronger leads by the methods of combinatorial expansion disclosed herein.

Row | IC50 (MCF-7 (Breast)) [µM] | IC50 (HCT116 (Colon)) [µM] | IC50 (HCT 8 (Colon)) [µM] | SMILES | IC50 [1] [µM] | IC50 (KAIMRC1 (Breast)) [µM] | IC50 (HL 60 (leukemia)) [µM] | IC50 (ThP1 (leukemia)) [µM] | range of activity compared with Mitoxanthrone [2]
1 | 9.29 | 2.47 | 1.87 | CCC1(C)OC(=O)C(=CC=Cc2cncc3ccccc23)C(=O)O1 (stereo not shown) [Example 12, 2-ETHYL-5-(3-ISOQUINOLIN-4-YL-ALLYLIDENE)-2-METHYL-[1,3]DIOXANE-4,6-DIONE] | 6.05 | 4.25 | 2.05 | 1.82 | range of activity that begins to overlap with that of Mitoxanthrone
2 | 9.15 | 6.38 | 19.8 | CCC1(C)OC(=O)C(=CC=Cc2ccnc3ccccc23)C(=O)O1 (stereo not shown) [Example 13, 2-ETHYL-2-METHYL-5-(3-QUINOLIN-4-YL-ALLYLIDENE)-[1,3]DIOXANE-4,6-DIONE] | 11 | 14.4 | 1.04 | 0.88 | range of activity that begins to overlap with that of Mitoxanthrone
